Experimental data taken from patent US20110306600A1, “NOVEL THERAPEUTIC COMPOUNDS” (Grunenthal GmbH, priority 2010, published 2011).

Assay: Thermal tail-flick test on rats
Assay type: in vivo, rat
Conditions: 3 mg/kg injection in saline, against placebo, TFL measured approximately every hour
Description: Therapeutic Solutions: The compound 2 90 mg was dissolved in 30 ml of saline solution and the injection volume was calculated as 1 ml/kg to achieve 3 mg/kg of compound of Formula 31. The placebo solution was identical except it is devoid of any drug.
Tail-Flick Test: The experimentation was started by selecting ten at least 90-100 days old and were all weighed to determine the volume of experimental and placebo solution. Each rat, was habituated for three days to handling and the tail flick procedure and without heat exposure. In the administration, each animal was only used for one day of experiments, and given only one dose of drug, or placebo solution. The technique of D'Amour and Smith (1941) relies on latency to flick of the tail from onset of a focused beam of intense light. This method, employed for decades, has now been augmented by the ability to monitor temperature at the site of exposure. Columbus Instruments model TF-2 model was warmed, on the day of the experiment, for at least 30 minutes. The intensity of the lamp was adjusted so that baseline tail-flick latency for rats is equal to approximately 2.0 seconds. The intensity was set to 40% as this was determined to be the ideal intensity from the intensity response curve. […] The baseline value was determined for each animal prior to injection. The TFL was measured approximately every hour. The semilog means were calculated.

SMILES: CC12CC3CC(C)(C1)CC(NC(=O)C1(CN)CCCCC1)(C3)C2 [Formula 2]
- time course of antinociceptive effect in the thermal tail flick test (FIG. 1): antinociceptive effect
